Laboratory results as given in PubChem BioAssay AID330 (DTP/NCI, 2004).
Where “and” joins values, the source holds several entries; their conditions need not be identical. Identical values can stand only once. Inconclusive results and toxic doses are left out.

System: P388 leukemia ip, CD2F1 mice, survival T/C
Assay: NCI In Vivo Anticancer Drug Screen. Data for tumor model P388 Leukemia (intraperitoneal) in CD2F1 (CDF1) mice
Conditions: endpoint: median survival time, higher = longer survival
In short: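 Mice carrying the transplanted tumor received test compound or vehicle. Survival was recorded in each group, and the value is the treated-group measurement divided by that of the vehicle-treated control group.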

[1] = dose: 12.5 mg/kg/injection, schedule: Q01DX009 (ip), vehicle: saline with Tween-80
[2] = dose: 25.0 mg/kg/injection, schedule: Q01DX009 (ip), vehicle: saline with Tween-80
[3] = dose: 60.0 mg/kg/injection, schedule: Q01DX005 (ip), vehicle: saline with Tween-80
[4] = dose: 120.0 mg/kg/injection, schedule: Q01DX005 (ip), vehicle: saline with Tween-80
[5] = dose: 240.0 mg/kg/injection, schedule: Q01DX005 (ip), vehicle: saline with Tween-80
[6] = dose: 50.0 mg/kg/injection, schedule: Q01DX009 (ip), vehicle: saline with Tween-80
[7] = dose: 100.0 mg/kg/injection, schedule: Q01DX009 (ip), vehicle: saline with Tween-80
[8] = dose: 200.0 mg/kg/injection, schedule: Q01DX009 (ip), vehicle: saline with Tween-80
[9] = dose: 50.0 mg/kg/injection, schedule: Q01DX005 (ip), vehicle: Klucel (hydroxypropylcellulose) (HPC)
[10] = dose: 100.0 mg/kg/injection, schedule: Q01DX005 (ip), vehicle: Klucel (hydroxypropylcellulose) (HPC)
[11] = dose: 200.0 mg/kg/injection, schedule: Q01DX005 (ip), vehicle: Klucel (hydroxypropylcellulose) (HPC)
[12] = dose: 100.0 mg/kg/injection, schedule: Q04DX003 (ip), vehicle: saline with Tween-80
[13] = dose: 200.0 mg/kg/injection, schedule: Q04DX003 (ip), vehicle: saline with Tween-80
[14] = dose: 400.0 mg/kg/injection, schedule: Q04DX003 (ip), vehicle: saline with Tween-80

## C[C@@H]1CC[C@@]2(OC1)O[C@H]1C[C@H]3[C@@H]4CC=C5C=CCC[C@]5(C)[C@H]4CC[C@]3(C)[C@H]1[C@@H]2C
dose: 2.25 mg/kg/injection, schedule: Q01DX005 (ip), vehicle: Klucel (hydroxypropylcellulose) (HPC)
  T/C: 100 % of control
dose: 4.5 mg/kg/injection, schedule: Q01DX005 (ip), vehicle: Klucel (hydroxypropylcellulose) (HPC)
  T/C: 100 % of control
dose: 9.0 mg/kg/injection, schedule: Q01DX005 (ip), vehicle: Klucel (hydroxypropylcellulose) (HPC)
  T/C: 105 % of control
dose: 18.0 mg/kg/injection, schedule: Q01DX005 (ip), vehicle: Klucel (hydroxypropylcellulose) (HPC)
  T/C: 100 % of control
dose: 36.0 mg/kg/injection, schedule: Q01DX005 (ip), vehicle: Klucel (hydroxypropylcellulose) (HPC)
  T/C: 98 % of control

## C=Cn1c([N+](=O)[O-])cnc1/C=C/c1ccc(C(=O)OCCN2CCCC2)cc1
dose: 12.5 mg/kg/injection, schedule: Q01DX001 (ip), vehicle: DMSO
  T/C: 105 % of control
dose: 25.0 mg/kg/injection, schedule: Q01DX001 (ip), vehicle: DMSO
  T/C: 98 % of control
dose: 50.0 mg/kg/injection, schedule: Q01DX001 (ip), vehicle: DMSO
  T/C: 104 % of control
dose: 100.0 mg/kg/injection, schedule: Q01DX001 (ip), vehicle: DMSO
  T/C: 100 % of control

## C[N+]1(CSc2ccccc2)CCCCC1
[1]
  T/C: 100 % of control
[2]
  T/C: 98 % of control

## COc1cc(/C=C/C(=O)Sc2ccccc2)cc(OC)c1O
[3]
  T/C: 109 % of control
[4]
  T/C: 105 % of control
[5]
  T/C: 100 % of control

## CN(C)/N=C/c1ccc(O)cc1
dose: 50.0 mg/kg/injection, schedule: Q01DX009 (ip), vehicle: Klucel (hydroxypropylcellulose) (HPC)
  T/C: 118 % of control
dose: 100.0 mg/kg/injection, schedule: Q01DX009 (ip), vehicle: Klucel (hydroxypropylcellulose) (HPC)
  T/C: 100 % of control and 101 % of control
dose: 200.0 mg/kg/injection, schedule: Q01DX009 (ip), vehicle: Klucel (hydroxypropylcellulose) (HPC)
  T/C: 102 % of control and 114 % of control

## COc1ccc(Cl)cc1NC(=O)NNC(=O)C(=O)NC1CC1
[6]
  T/C: 100 % of control
[7]
  T/C: 97 % of control
[8]
  T/C: 102 % of control

## CN(C)c1noc2c1c(=O)n(C)c(=O)n2C
dose: 60.0 mg/kg/injection, schedule: Q01DX005 (ip), vehicle: saline
  T/C: 105 % of control
dose: 120.0 mg/kg/injection, schedule: Q01DX005 (ip), vehicle: saline
  T/C: 100 % of control
dose: 240.0 mg/kg/injection, schedule: Q01DX005 (ip), vehicle: saline
  T/C: 99 % of control

## CCOC(=O)Nc1nc2ccccc2n1CN1CCCCC1
dose: 25.0 mg/kg/injection, schedule: Q01DX005 (ip), vehicle: Klucel (hydroxypropylcellulose) (HPC)
  T/C: 97 % of control
[9]
  T/C: 100 % of control
[10]
  T/C: 106 % of control
[11]
  T/C: 115 % of control

## CC(=O)OC1COC(n2nnc3c(=O)[nH]cnc32)C(OC(C)=O)C1OC(C)=O (stereo unspecified)
dose: 100.0 mg/kg/injection, schedule: Q01DX001 (ip), vehicle: saline with Tween-80
  T/C: 103 % of control
dose: 200.0 mg/kg/injection, schedule: Q01DX001 (ip), vehicle: saline with Tween-80
  T/C: 103 % of control
dose: 400.0 mg/kg/injection, schedule: Q01DX001 (ip), vehicle: saline with Tween-80
  T/C: 103 % of control

## CN(C)CCc1ccccn1
dose: 25.0 mg/kg/injection, schedule: Q04DX003 (ip), vehicle: saline
  T/C: 101 % of control
dose: 50.0 mg/kg/injection, schedule: Q04DX003 (ip), vehicle: saline
  T/C: 115 % of control
dose: 100.0 mg/kg/injection, schedule: Q04DX003 (ip), vehicle: saline
  T/C: 94 % of control

## c1ccc(Cc2cccc[n+]2C(c2ccccc2)c2ccccc2)cc1
dose: 6.25 mg/kg/injection, schedule: Q01DX009 (ip), vehicle: Klucel (hydroxypropylcellulose) (HPC)
  T/C: 105 % of control
dose: 12.5 mg/kg/injection, schedule: Q01DX009 (ip), vehicle: Klucel (hydroxypropylcellulose) (HPC)
  T/C: 87 % of control

## CCOC(OCC)c1cccc([N+](=O)[O-])c1
[12]
  T/C: 112 % of control
[13]
  T/C: 106 % of control
[14]
  T/C: 117 % of control

## CCOC(=O)CCC(=O)Oc1cccc2c1C(=O)c1c(OC(=O)CCC(=O)OCC)cccc1C2=O
dose: 60.0 mg/kg/injection, schedule: Q01DX005 (ip), vehicle: Klucel (hydroxypropylcellulose) (HPC)
  T/C: 91 % of control
dose: 120.0 mg/kg/injection, schedule: Q01DX005 (ip), vehicle: Klucel (hydroxypropylcellulose) (HPC)
  T/C: 97 % of control
dose: 240.0 mg/kg/injection, schedule: Q01DX005 (ip), vehicle: Klucel (hydroxypropylcellulose) (HPC)
  T/C: 91 % of control

## Cc1cc(C(C)CC(=O)O)c(C)c(C)c1C (stereo unspecified)
[6]
  T/C: 96 % of control
[7]
  T/C: 93 % of control
[8]
  T/C: 108 % of control

## O=C(Oc1ccc[nH]c1=O)C1CCCCC1
[9]
  T/C: 108 % of control and 96 % of control
[10]
  T/C: 100 % of control and 89 % of control
[11]
  T/C: 102 % of control and 86 % of control
dose: 400.0 mg/kg/injection, schedule: Q01DX005 (ip), vehicle: Klucel (hydroxypropylcellulose) (HPC)
  T/C: 92 % of control and 97 % of control

## O=C1OC(C2OC(=O)C(=O)C2C2CCCCCCC2=O)C(C2CCCCCCC2=O)C1=O (stereo unspecified)
[3]
  T/C: 102 % of control
[4]
  T/C: 95 % of control
[5]
  T/C: 100 % of control

## CC1CC(C)(C)N=C(C2(c3ccccc3)CC2)O1 (stereo unspecified)
[6]
  T/C: 109 % of control
[7]
  T/C: 109 % of control
[8]
  T/C: 100 % of control

## CNC(=S)N(C)CCCCN(C)C(=S)NC
dose: 50.0 mg/kg/injection, schedule: Q01DX009 (ip), vehicle: saline
  T/C: 102 % of control
dose: 100.0 mg/kg/injection, schedule: Q01DX009 (ip), vehicle: saline
  T/C: 105 % of control
dose: 200.0 mg/kg/injection, schedule: Q01DX009 (ip), vehicle: saline
  T/C: 100 % of control

## COc1ccc(C2CC(=O)N(CN3CCN(c4ccccc4)CC3)C(=O)C2)cc1
[1]
  T/C: 98 % of control
[2]
  T/C: 93 % of control
[6]
  T/C: 87 % of control and 92 % of control

## OC(c1ccccc1)(c1ccc(Br)cc1)C1CC1 (stereo unspecified)
dose: 25.0 mg/kg/injection, schedule: Q01DX001 (ip), vehicle: Klucel (hydroxypropylcellulose) (HPC)
  T/C: 100 % of control
dose: 50.0 mg/kg/injection, schedule: Q01DX001 (ip), vehicle: Klucel (hydroxypropylcellulose) (HPC)
  T/C: 96 % of control
dose: 100.0 mg/kg/injection, schedule: Q01DX001 (ip), vehicle: Klucel (hydroxypropylcellulose) (HPC)
  T/C: 97 % of control

## CCOC(CNc1cnc(NC(C)=O)[nH]c1=O)OCC
[2]
  T/C: 102 % of control
[6]
  T/C: 104 % of control
[7]
  T/C: 102 % of control
[8]
  T/C: 112 % of control

## COc1ccc2ccc(CCC(=O)O)cc2c1
dose: 12.5 mg/kg/injection, schedule: Q01DX009 (ip), vehicle: distilled water + Tween-80
  T/C: 100 % of control
dose: 25.0 mg/kg/injection, schedule: Q01DX009 (ip), vehicle: distilled water + Tween-80
  T/C: 100 % of control
dose: 50.0 mg/kg/injection, schedule: Q01DX009 (ip), vehicle: distilled water + Tween-80
  T/C: 94 % of control
dose: 100.0 mg/kg/injection, schedule: Q01DX009 (ip), vehicle: distilled water + Tween-80
  T/C: 99 % of control
dose: 200.0 mg/kg/injection, schedule: Q01DX009 (ip), vehicle: distilled water + Tween-80
  T/C: 108 % of control

## C=CCC(CC)C(=O)Cl (stereo unspecified)
dose: 75.0 mg/kg/injection, schedule: Q01DX009 (ip), vehicle: saline with Tween-80
  T/C: 93 % of control
dose: 150.0 mg/kg/injection, schedule: Q01DX009 (ip), vehicle: saline with Tween-80
  T/C: 92 % of control
dose: 300.0 mg/kg/injection, schedule: Q01DX009 (ip), vehicle: saline with Tween-80
  T/C: 111 % of control

## CN(C)CCNc1ccc(CO)c2sc3ccc(O)cc3c(=O)c12
dose: 25.0 mg/kg/injection, schedule: Q01DX005 (ip), vehicle: saline with Tween-80
  T/C: 160 % of control and 162 % of control
dose: 50.0 mg/kg/injection, schedule: Q01DX005 (ip), vehicle: saline with Tween-80
  T/C: 173 % of control and 175 % of control
dose: 100.0 mg/kg/injection, schedule: Q01DX005 (ip), vehicle: saline with Tween-80
  T/C: 190 % of control and 194 % of control
dose: 200.0 mg/kg/injection, schedule: Q01DX005 (ip), vehicle: saline with Tween-80
  T/C: 222 % of control

## Cc1ccc(CNc2cccnc2)cc1
[12]
  T/C: 104 % of control
[13]
  T/C: 95 % of control
[14]
  T/C: 90 % of control

## C(=NCCCN=CC1CCCC[N-]1)C1CCCC[N-]1.[Cu+2].[O-][Cl+3]([O-])([O-])O (stereo unspecified)
dose: 3.12 mg/kg/injection, schedule: Q01DX009 (ip), vehicle: saline with Tween-80
  T/C: 103 % of control
dose: 6.25 mg/kg/injection, schedule: Q01DX009 (ip), vehicle: saline with Tween-80
  T/C: 101 % of control
[1]
  T/C: 103 % of control and 112 % of control
[2]
  T/C: 103 % of control
